From patent publication US20140221389A1, “USE OF 4-AMINO-5-FLUORO-3-[6-(4-METHYLPIPERAZIN-1-YL)-1H-BENZIMIDAZOL-2-YL]-1H-QUINOLIN-2-ONE IN THE TREATMENT OF CANCER IN MODERATE HEPATIC IMPAIRED PATIENTS” (Novartis AG, priority 2011, published 2014)

Assay: Plasma pharmacokinetics of COMPOUND I in Phase I and II studies
Type: in vivo, patients

- inter-subject coefficient of variation (CV %) for AUC (500 mg/day on a 5 days on/2 days off dosing schedule): around 50%
- plasma pharmacokinetic (all doses tested from 25 to 600 mg, continuous daily dosing regimen): time dependent
- exposure of COMPOUND I with dose (doses of 400 mg/day and above, continuous daily dosing regimen): prolonged over-proportional exposure
Compound: CN1CCN(c2ccc3nc(-c4c(N)c5c(F)cccc5[nH]c4=O)[nH]c3c2)CC1 [COMPOUND I, 4-amino-5-fluoro-3-[6-(4-methylpiperazin-1-yl)-1H-benzimidazol-2-yl]-1H-quinolin-2-one]
